Results published in patent US20260374739A1, “SMALL MOLECULAR WEIGHT CHEMICAL COMPOUND TO ANTAGONIZE EPH-EPHRIN TETRAMERIZATION AND INHIBIT BIDIRECTIONAL SIGNALING” (THE BOARD OF REGENTS OF THE UNIVERSITY OF TEXAS SYSTEM, priority 2022, published 2026).
“Also recorded” adds a separate entry of the source.

Key:
[1] = test system: DH neurons in the spinal cord; experiment: dorsal horn neuron activation (Tom+) after Zymosan; assay type: in vivo, mouse; settings: PO
Text: In this example, an in-house method to count and quantify/analyze Tom+ neurons (see Example 23) in the dorsal horn (DH) of the spinal cord is used to track the effect of an inflammatory insult (subcutaneous injection of CFA into the left hind paw). As described above in Example 23, we initially dissected perfusion-fixed spinal cords and then cut in the transverse plane 50 μm thick serial sections throughout the entire length of the lumbar cord of each animal using a vibratome aiming to capture all sections. As serial sections are cut, they are placed into 10 section bins (500 μm spinal cord per bin) and a total of 12 bins are collected spanning 6 mm total spinal cord length. […] Focusing in on this “sweet spot” of 4 bins, the additional sections were mounted and analyzed (aiming for at least 12 sections from these 4 bins, 3 per bin) to increase total data to analyze.
In another example, 307 Axioscan imaged lumbar spinal cord sections from the “sweet spots” of eight+/+wild-type mice subjected to Zymosan pain model and oral dosing of either vehicle (n=3), 3511-I (2×HCl, n=3), or BQPB4 (3×HCl, n=2) were analyzed. […] There was also a trend towards lower overall Tom+ ratios in the 3511-I or BQPB4 treated mice, though the numbers of mice analyzed here were too low to reveal significance.

[2] = in vitro metabolic stability, murine microsomal assay; assay type: in vitro ADME, mouse; settings: for half-life: mouse, liver microsomes, murine microsomal assay; for metabolic stability: murine microsomal, compared to A20
EphB4-Fc / EB2-His = molecular target: T1, EphB4-Fc / EB2-His (Mus musculus, UniProt P54761); experiment: pulldown EB2-His to EphB4-Fc; assay type: binding; settings: up to 250 μM for A20; listed as A20
T1 construct: soluble mouse EB2-His ectodomain, pulldown

[3] = in vitro plasma stability; assay type: in vitro ADME; settings: mouse plasma; for plasma stability: free base or salt
Protocol: FIG. 46 depicts tests of A20 and A20-I free base and salt forms for in vitro plasma stability. Compounds were provided to the UT Southwestern PK Core facility and tested for stability when incubated with mouse plasma.
To examine the drug-like nature of the disclosed compounds, tests for solubility was conducted.

[4] = test system: DH neurons in the spinal cord; experiment: dorsal horn neuron activation (Trap2/Ai9) after CFA; assay type: in vivo, mouse; settings: listed as A20
Protocol: FIG. 65 depicts development of a quantitative fluorescent method to assess the activation of DH neurons in the spinal cord following a chronic, […]. The left hind paws of EphB1+/+ wild-type, EphB1+/− heterozygous, and EphB1−/− homozygous mutant mice that also contained the Trap2/CreERT2 driver and the Ai9/tdTomato reporter were injected once with CFA to induce inflammatory pain. Four hours later, mice were then injected IP with 4-hydroxy-tamoxifen (4-OHT, 40 mg/kg in sunflower seed oil) to activate Cre recombinase and permanently label with red fluorescence the neurons that were activated during the short window of time (~8 hr) until the 4-OHT is degraded. Fourteen days later, animals were perfused with 4% paraformaldehyde dissolved in PBS and then […] thick vibratome serial sections of the lumbar spinal cord were obtained, mounted, and viewed under fluorescence microscopy to identify red labeled neurons in the superficial dorsal horn of the spinal cords that were activated between ~4-12 hr after the CFA induction of inflammatory pain. Superficial red neurons were counted on the left (injured) and right (uninjured) side dorsal horns (boxed areas) from 8-12 serial sections along the span of lumbar cord of each animal. […]

EphB1-Fc / EB2-His = molecular target: T2, EphB1-Fc / EB2-His (Rattus norvegicus, UniProt P09759); experiment: pulldown EB2-His to EphB1-Fc; assay type: binding, mouse EB2; settings: 50 and 250 μM for A20; listed as A20
T2 construct: mouse (Mus musculus) EB2-His ectodomain, pulldown
Text: A20, E13, and other compounds from the top 32 hits were then characterized in pulldown assays. EphB1-Fc was immobilized onto Protein A agarose beads, then mixed with compounds and the soluble EB2-His ectodomain for 1 hr at RT, after which protein complexes were washed and then bound EB2 was detected by immunoblot using anti-His antibodies.

T2 sequence (P09759 18-538): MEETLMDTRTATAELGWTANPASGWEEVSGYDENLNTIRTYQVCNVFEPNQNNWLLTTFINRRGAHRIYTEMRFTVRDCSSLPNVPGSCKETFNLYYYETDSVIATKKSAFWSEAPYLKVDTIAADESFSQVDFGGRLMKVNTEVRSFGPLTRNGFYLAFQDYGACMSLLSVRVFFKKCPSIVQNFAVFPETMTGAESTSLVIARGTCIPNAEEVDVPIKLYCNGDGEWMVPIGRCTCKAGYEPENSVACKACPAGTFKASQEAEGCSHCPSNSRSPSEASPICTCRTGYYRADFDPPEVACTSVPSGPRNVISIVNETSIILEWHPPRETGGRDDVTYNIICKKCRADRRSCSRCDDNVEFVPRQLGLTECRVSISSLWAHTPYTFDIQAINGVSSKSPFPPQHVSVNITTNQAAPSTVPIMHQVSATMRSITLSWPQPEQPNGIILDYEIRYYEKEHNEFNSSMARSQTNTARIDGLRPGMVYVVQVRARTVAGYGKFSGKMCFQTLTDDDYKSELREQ
T1 sequence (P54761 16-539 limits assumed): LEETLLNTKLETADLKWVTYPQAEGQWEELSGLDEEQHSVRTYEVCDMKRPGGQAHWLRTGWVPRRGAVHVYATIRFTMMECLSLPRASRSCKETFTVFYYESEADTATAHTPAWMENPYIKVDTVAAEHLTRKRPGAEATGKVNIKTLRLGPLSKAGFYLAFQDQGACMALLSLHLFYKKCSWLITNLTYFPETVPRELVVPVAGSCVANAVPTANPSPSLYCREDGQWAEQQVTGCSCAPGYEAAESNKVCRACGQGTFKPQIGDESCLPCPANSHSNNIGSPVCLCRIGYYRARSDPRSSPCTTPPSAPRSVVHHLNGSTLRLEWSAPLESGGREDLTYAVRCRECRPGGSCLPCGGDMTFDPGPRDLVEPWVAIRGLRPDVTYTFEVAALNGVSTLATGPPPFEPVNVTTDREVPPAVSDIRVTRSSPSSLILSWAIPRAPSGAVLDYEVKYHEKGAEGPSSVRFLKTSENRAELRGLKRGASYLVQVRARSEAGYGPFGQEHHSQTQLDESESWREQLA

| Structure (SMILES) | ratio of Tom+ DH neurons [1] | half-life [2] [h] | plasma stability [3] | other results |
| --- | --- | --- | --- | --- |
| COc1ccccc1N1CCN(Cc2cc(I)c(O)c3ncccc23)CC1 [Compound 71, 7-iodo-5-((4-(2-methoxyphenyl)piperazin-1-yl)methyl)quinolin-8-ol] | significantly lower ratio of Tom+ neurons compared to the vehicle treated animals |  |  |  |
| Oc1c(Br)cc(CN2CCN(c3ccc(Br)cc3)CC2)c2cccnc12 [Compound 28, 7-bromo-5-((4-(4-bromophenyl)piperazin-1-yl)methyl)quinolin-8-ol] | significantly lower ratio of Tom+ neurons compared to the vehicle treated animals |  |  |  |
| Oc1ccc(CN2CCOCC2)c2cccnc12 [Compound 1, 5-(morpholinomethyl)quinolin-8-ol] |  | 0.367 |  |  |
| Oc1c(Br)cc(CN2CCOCC2)c2cccnc12 [Compound 5, 7-bromo-5-(morpholinomethyl)quinolin-8-ol] |  | 3.73 | quite stable | pulldown EphB4-Fc binding to EB2-His (EphB4-Fc / EB2-His): only a weak ability to prevent EphB4-Fc from binding to EB2-His; also recorded: only weak/poor ability to antagonize soluble EB2-His binding; DH neuron activation [4]: significantly fewer labeled neurons in the injured side; also recorded: dramatically reduced DH neuron activation; pulldown EB2-His binding to EphB1-Fc (EphB1-Fc / EB2-His): strongly reduced EB2-His binding to EphB1-Fc; also recorded: reduces the ability of soluble EB2-His to bind to immobilized EphB1-Fc |
| COc1ccccc1N1CCN(Cc2cc(Br)c(O)c3ncccc23)CC1 [Compound 70, 7-bromo-5-((4-(2-methoxyphenyl)piperazin-1-yl)methyl)quinolin-8-ol] |  | 2.27 |  |  |
| Oc1c(I)cc(CN2CCOCC2)c2cccnc12 [Compound 7, 7-iodo-5-(morpholinomethyl)quinolin-8-ol] |  |  | superior stability | plasma half-life longer than A20 [3]: 3-5 times; metabolic stability ([2]; listed as A20-1): longer in vitro half-life; metabolic stability ([2]; listed as A20-I): increased in vitro metabolic stability compared to A20 |
